# Source: PMC7540184 (Journal of natural products, 2020)
# Experiments:
# Type in all cases: cell-based, human
# [1] = tested on: BT-549 cells with NCX1 knockout; assay: Sensitivity of BT-549 cells after CRISPR knockout of NCX1; details: inducible Cas9, three sgRNAs targeted to NCX1
# MDA-MB-231 cells = assay: Intracellular Ca2+ imaging; details: MDA-MB-231, 150 nM
# BT-549 cells = assay: Intracellular Ca2+ imaging; details: BT-549, 150 nM and 500 nM, after 3 h, sustained at 6 h
compound,measurement,setting,value
"C[C@@H]1C[C@H](O)[C@]2(O)O[C@@H]3C[C@@]4(C=O)[C@@H](CC[C@@H]5[C@@H]4CC[C@]4(C)[C@@H](C6=CC(=O)OC6)CC[C@]54O)C[C@H]3O[C@@H]2O1 [calotropin (9), Calotropin]",effect of removing NCX1 on sensitivity of BT-549 cells,[1],did not reduce the sensitivity
same,change in Ca2+ fluorescence relative to BT-549 cells,MDA-MB-231 cells,significantly less
same,mean intracellular Ca2+ fluorescence compared to vehicle-treated cells,BT-549 cells,significantly increased
